Data published in ChEMBL document CHEMBL2429854, “Influences of hydrocarbon linkers on the receptor binding affinities of gonadotropin-releasing hormone peptides” (Bioorg Med Chem Lett, 2013).

How the values were obtained:
[1] = molecular target: T1, Gonadotropin-releasing hormone receptor (Homo sapiens) (UniProt P30968); assay: Displacement of [111In]-DOTA-Aun-(D-Lys6-GnRH) from human GnRH receptor after 3 hrs by gamma-counting; details: concentration not given here
T1 sequence (whole entry): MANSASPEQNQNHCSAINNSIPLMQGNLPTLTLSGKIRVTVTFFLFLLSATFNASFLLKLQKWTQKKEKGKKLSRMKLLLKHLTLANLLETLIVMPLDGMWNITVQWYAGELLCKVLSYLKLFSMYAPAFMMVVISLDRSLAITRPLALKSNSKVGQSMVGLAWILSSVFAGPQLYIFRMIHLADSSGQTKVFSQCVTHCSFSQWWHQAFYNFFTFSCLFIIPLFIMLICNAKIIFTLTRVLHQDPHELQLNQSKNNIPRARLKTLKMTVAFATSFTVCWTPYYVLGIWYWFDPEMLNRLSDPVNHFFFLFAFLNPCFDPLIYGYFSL

[2] = molecular target: T2, Gonadotropin-releasing hormone receptor (Homo sapiens, UniProt P30968); assay: Displacement of [125I]-[DTrp6]-LH-RH from human GnRH receptor after 3 hrs by gamma counting
T2 sequence (P30968 whole entry): T1 sequence (whole entry)

Compound | inhibition [1] | IC50 [2]
CC(C)C[C@H](NC(=O)[C@@H](CCCCNC(=O)CCCCCCCCCCNC(=O)CN1CCN(CC(=O)O)CCN(CC(=O)O)CCN(CC(=O)O)CC1)NC(=O)[C@H](Cc1ccc(O)cc1)NC(=O)[C@H](CO)NC(=O)[C@H](Cc1c[nH]c2ccccc12)NC(=O)[C@H](Cc1cnc[nH]1)NC(=O)[C@@H]1CCC(=O)N1)C(=O)N[C@@H](CCCNC(=N)N)C(=O)N1CCC[C@H]1C(=O)NCC(N)=O | 85% | –
CC(C)C[C@H](NC(=O)[C@@H](CCCCNC(=O)CCCNC(=O)CN1CCN(CC(=O)O)CCN(CC(=O)O)CCN(CC(=O)O)CC1)NC(=O)[C@H](Cc1ccc(O)cc1)NC(=O)[C@H](CO)NC(=O)[C@H](Cc1c[nH]c2ccccc12)NC(=O)[C@H](Cc1cnc[nH]1)NC(=O)[C@@H]1CCC(=O)N1)C(=O)N[C@@H](CCCN=C(N)N)C(=O)N1CCC[C@H]1C(=O)NCC(N)=O | – | 134 nM
